Laboratory results: patent publication US10065963B2 (Incyte Corporation, priority 2015, dated 2018)
pIC50: −log10 of the molar value. Structures can show the parent of a compound that is named as a salt. Where two headings read alike, the source gives them in different places.

Columns and labels:
[1] = test system: Phosphorylated Ribosomal Protein S6 (RPS6) in THP-1 cells; assay: THP-1 RPS6 ELISA assay; assay type: cell-based, human; conditions: 10 nM MCP-1, read-out: PI3Kγ_THP1_RPS6_ELISA IC50
[2] = target: PI3Kδ (p110δ/p85α) Recombinant Human Protein (Homo sapiens (Human), UniProt O00329); assay: PI3Kδ scintillation proximity assay; assay type: biochemical; conditions: 2 μM ATP, 20 μM PIP2
[3] = target: PI3Kγ (p110γ) Recombinant Human Protein (Homo sapiens (Human), UniProt P48736); assay: PI3K-γ scintillation proximity assay; assay type: biochemical; conditions: 2 μM ATP, 20 μM PIP2
[4] = Homo sapiens, THP-1, THP-1 cells

Sequence of PI3Kδ (p110δ/p85α) Recombinant Human Protein (O00329 whole entry): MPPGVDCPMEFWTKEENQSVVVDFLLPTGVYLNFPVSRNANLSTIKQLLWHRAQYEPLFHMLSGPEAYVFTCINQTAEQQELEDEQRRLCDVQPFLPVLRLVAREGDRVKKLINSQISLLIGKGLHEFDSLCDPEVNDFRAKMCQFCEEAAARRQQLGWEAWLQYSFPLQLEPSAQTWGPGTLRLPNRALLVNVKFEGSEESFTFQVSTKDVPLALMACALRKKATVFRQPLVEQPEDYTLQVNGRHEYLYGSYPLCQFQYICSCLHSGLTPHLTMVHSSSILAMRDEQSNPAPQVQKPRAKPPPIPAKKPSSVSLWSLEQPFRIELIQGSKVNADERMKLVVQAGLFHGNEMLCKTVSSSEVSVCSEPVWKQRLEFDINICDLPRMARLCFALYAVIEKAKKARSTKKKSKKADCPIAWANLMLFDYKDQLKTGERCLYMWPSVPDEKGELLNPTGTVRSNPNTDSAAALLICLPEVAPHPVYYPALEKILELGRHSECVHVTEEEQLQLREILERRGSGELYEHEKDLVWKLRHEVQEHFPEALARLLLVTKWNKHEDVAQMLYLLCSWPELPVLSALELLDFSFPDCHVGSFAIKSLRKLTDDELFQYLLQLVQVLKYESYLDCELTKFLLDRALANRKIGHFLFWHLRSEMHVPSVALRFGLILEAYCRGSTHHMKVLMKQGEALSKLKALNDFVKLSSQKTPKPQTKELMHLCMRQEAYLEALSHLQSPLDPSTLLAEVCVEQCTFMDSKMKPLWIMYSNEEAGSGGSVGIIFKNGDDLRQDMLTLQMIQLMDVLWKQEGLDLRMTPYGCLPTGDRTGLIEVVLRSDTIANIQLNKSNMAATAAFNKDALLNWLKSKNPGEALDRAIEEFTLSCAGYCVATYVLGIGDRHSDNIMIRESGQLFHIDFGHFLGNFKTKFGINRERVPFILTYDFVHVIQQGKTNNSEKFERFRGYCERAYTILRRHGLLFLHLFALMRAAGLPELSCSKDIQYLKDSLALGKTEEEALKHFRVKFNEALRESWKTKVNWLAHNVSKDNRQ
Sequence of PI3Kδ (p110δ/p85α) Recombinant Human Protein (P27986 whole entry partner): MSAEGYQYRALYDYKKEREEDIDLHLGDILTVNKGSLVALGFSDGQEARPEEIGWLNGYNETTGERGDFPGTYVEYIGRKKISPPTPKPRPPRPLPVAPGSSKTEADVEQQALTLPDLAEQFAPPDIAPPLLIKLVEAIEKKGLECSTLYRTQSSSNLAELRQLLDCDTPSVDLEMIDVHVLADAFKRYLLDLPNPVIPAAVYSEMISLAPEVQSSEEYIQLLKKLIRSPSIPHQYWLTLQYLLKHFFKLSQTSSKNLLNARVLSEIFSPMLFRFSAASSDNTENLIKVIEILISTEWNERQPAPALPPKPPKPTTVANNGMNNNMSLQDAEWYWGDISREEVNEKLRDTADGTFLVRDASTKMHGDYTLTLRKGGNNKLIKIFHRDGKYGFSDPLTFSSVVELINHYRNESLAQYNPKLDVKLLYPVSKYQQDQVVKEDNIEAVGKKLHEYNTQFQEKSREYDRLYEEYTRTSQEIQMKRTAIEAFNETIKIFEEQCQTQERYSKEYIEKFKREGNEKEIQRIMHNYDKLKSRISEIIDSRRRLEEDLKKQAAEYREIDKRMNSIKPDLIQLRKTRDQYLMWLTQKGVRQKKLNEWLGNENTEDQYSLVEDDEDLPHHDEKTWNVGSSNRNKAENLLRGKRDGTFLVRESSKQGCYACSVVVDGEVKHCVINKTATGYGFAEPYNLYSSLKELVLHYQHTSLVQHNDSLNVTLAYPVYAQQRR
Sequence of PI3Kγ (p110γ) Recombinant Human Protein (P48736 whole entry): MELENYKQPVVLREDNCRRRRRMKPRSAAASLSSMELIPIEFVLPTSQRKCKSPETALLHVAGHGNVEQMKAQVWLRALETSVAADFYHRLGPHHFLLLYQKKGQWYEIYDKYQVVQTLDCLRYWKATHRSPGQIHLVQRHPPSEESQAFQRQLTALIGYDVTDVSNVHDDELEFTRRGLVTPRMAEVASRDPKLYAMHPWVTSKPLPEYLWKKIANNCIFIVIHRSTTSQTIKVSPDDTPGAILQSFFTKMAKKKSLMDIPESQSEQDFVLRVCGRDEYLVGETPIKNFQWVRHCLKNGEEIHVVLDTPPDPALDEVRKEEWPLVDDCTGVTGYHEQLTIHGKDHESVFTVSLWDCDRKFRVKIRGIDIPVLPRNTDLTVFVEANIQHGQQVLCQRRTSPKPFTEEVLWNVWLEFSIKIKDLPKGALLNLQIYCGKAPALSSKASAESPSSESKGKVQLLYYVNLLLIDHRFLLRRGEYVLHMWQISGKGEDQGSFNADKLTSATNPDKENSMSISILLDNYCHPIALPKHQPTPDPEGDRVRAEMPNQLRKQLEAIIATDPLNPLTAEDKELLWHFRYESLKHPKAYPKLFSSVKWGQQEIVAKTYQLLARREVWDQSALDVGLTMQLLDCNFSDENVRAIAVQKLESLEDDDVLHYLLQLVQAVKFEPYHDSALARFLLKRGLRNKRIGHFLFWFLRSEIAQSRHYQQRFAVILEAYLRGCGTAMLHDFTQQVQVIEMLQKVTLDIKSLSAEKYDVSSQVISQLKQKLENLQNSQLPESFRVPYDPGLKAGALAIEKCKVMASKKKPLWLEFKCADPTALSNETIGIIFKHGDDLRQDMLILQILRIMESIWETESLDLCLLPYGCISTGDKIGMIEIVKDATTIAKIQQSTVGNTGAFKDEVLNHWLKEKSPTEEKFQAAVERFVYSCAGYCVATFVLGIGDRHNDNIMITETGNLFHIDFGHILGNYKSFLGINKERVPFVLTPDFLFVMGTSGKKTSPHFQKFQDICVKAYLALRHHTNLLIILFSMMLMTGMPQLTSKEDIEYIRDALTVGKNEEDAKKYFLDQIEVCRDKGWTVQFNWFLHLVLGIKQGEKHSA

| pIC50 [1, 4] | pIC50 [2] | pIC50 [3] | pIC50 ([1]; THP-1 cells) | pIC50 ([1]; THP-1 cells, trifluoroacetate) | Compound |
| --- | --- | --- | --- | --- | --- |
| > 6.30 | > 7.00 | > 7.00 |  |  | CCOc1c(C(C)NC(=O)c2c(N)nn3cccnc23)cc(Cl)c2cn[nH]c12 (single isomer, unassigned) [Example 3a, 2-amino-N-[1-(4-chloro-7-ethoxy-1H-indazol-6-yl)ethyl]pyrazolo[1,5-a]pyrimidine-3-carboxamide trifluoroacetate] |
| > 6.30 | > 7.00 | > 7.00 |  |  | CC(NC(=O)c1c(N)nn2cccnc12)c1cc(Cl)c2cncn2c1N1CCS(=O)(=O)CC1 (single isomer, unassigned) [Example 36A, 2-Amino-N-(1-[8-chloro-5-(1,1-dioxidothiomorpholin-4-yl)imidazo[1,5-a]pyridin-6-yl]ethyl)pyrazolo[1,5-a]pyrimidine-3-carboxamide] |
| > 6.30 | > 7.00 | > 7.00 |  |  | CC(NC(=O)c1c(N)nn2cccnc12)c1cc(Cl)c2cncn2c1N1CCS(=O)(=O)CC1C (single isomer, unassigned) [Example 38A, 2-Amino-N-(1-[8-chloro-5-(3-methyl-1,1-dioxidothiomorpholin-4-yl)imidazo[1,5-a]pyridin-6-yl]ethyl)pyrazolo[1,5-a]pyrimidine-3-carboxamide trifluoroacetate salt] |
| > 6.30 | > 7.00 | > 7.00 |  |  | CC(NC(=O)c1c(N)nn2cccnc12)c1cc(Cl)c2cncn2c1N1CCCC(F)C1 (single isomer, unassigned) [Example 73A, 2-Amino-N-{1-[8-chloro-5-(3-fluoropiperidin-1-yl)imidazo[1,5-a]pyridin-6-yl]ethyl}pyrazolo[1,5-a]pyrimidine-3-carboxamide] |
| > 6.30 | > 6.30 | > 7.00 |  |  | CC(NC(=O)c1c(N)nn2cccnc12)c1cc(Cl)c2cncn2c1N1CCCC(C)(C#N)C1 (single isomer, unassigned) [Example 77A, 2-Amino-N-{1-[8-chloro-5-(3-cyano-3-methylpiperidin-1-yl)imidazo[1,5-a]pyridin-6-yl]ethyl}pyrazolo[1,5-a]pyrimidine-3-carboxamide trifluroacetate] |
| > 6.30 | > 6.30 | > 7.00 |  |  | CC(NC(=O)c1c(N)nn2cccnc12)c1cc(Cl)c2cncn2c1N1CCCC(O)(C(F)(F)F)C1 (single isomer, unassigned) [Example 78A, 2-Amino-N-(1-{8-chloro-5-[3-hydroxy-3-(trifluoromethyl)piperidin-1-yl]imidazo[1,5-a]pyridin-6-yl}ethyl)pyrazolo[1,5-a]pyrimidine-3-carboxamide trifluoroacetate] |
|  | > 7.00 | > 7.00 | > 6.30 |  | CC(NC(=O)c1c(N)nn2cccnc12)c1cc(Cl)c2cncn2c1N1CCCC(O)(C(F)(F)F)C1 (single isomer, unassigned) [Example 78B, 2-Amino-N-(1-{8-chloro-5-[3-hydroxy-3-(trifluoromethyl)piperidin-1-yl]imidazo[1,5-a]pyridin-6-yl}ethyl)pyrazolo[1,5-a]pyrimidine-3-carboxamide trifluoroacetate] |
| > 6.30 | > 6.30 | > 7.00 |  |  | CC(NC(=O)c1c(N)nn2cccnc12)c1cc(Cl)c2cn[nH]c2c1N1CCC(O)C1 (single isomer, unassigned) [Example 90B, 2-Amino-N-{1-[4-chloro-7-(3-hydroxypyrrolidin-1-yl)-2H-indazol-6-yl]ethyl}pyrazolo[1,5-a]pyrimidine-3-carboxamide bis(trifluoroacetate)] |
|  | > 6.30 | > 7.00 |  | > 6.30 | CNC(=O)C1CCN(c2c(C(C)NC(=O)c3c(N)nn4cccnc34)cc(Cl)c3cn[nH]c23)C1 (single isomer, unassigned) [Example 103B, 2-Amino-N-[1-(4-chloro-7-{3-[(methylamino)carbonyl]pyrrolidin-1-yl}-2H-indazol-6-yl)ethyl]pyrazolo[1,5-a]pyrimidine-3-carboxamide trifluoroacetate] |

More lines, now with the values behind:

| Compound | pIC50 [1, 4] | pIC50 [2] | pIC50 [3] | pIC50 ([1]; THP-1 cells) | pIC50 ([1]; THP-1 cells, trifluoroacetate) |
| --- | --- | --- | --- | --- | --- |
| Nc1nn2cccnc2c1C(=O)NC(c1cc(Cl)c2cncn2c1N1CCS(=O)(=O)CC1)C1CC1 (racemic) [Example 182, 2-Amino-N-((8-chloro-5-(1,1-dioxidothio-morpholino)imidazo [1,5-a]pyridin-6-yl)(cyclopropyl)methyl)pyrazolo [1,5-a] pyrimidine-3-carboxamide trifluoroacetate salt] | > 6.30 | > 7.00 | > 7.00 |  |  |
| CC(NC(=O)c1c(N)nn2cccnc12)c1cc(Cl)c2cncn2c1N1CCCC(F)C1 (single isomer, unassigned) [Example 73B, 2-Amino-N-{1-[8-chloro-5-(3-fluoropiperidin-1-yl)imidazo[1,5-a]pyridin-6-yl]ethyl}pyrazolo[1,5-a]pyrimidine-3-carboxamide] |  | > 7.00 | > 7.00 | > 6.30 |  |
| CC(NC(=O)c1c(N)nn2cccnc12)c1cc(Cl)c2cncn2c1N1CCCC(C)(O)C1 (single isomer, unassigned) [Example 76A, 2-Amino-N-{1-[8-chloro-5-(3-hydroxy-3-methylpiperidin-1-yl)imidazo[1,5-a]pyridin-6-yl]ethyl}pyrazolo[1,5-a]pyrimidine-3-carboxamide trifluoroacetate] | > 6.30 | > 7.00 | > 7.00 |  |  |
| CC(NC(=O)c1c(N)nn2cccnc12)c1cc(Cl)c2cncn2c1N1CCCC(C)(O)C1 (single isomer, unassigned) [Example 76B, 2-Amino-N-{1-[8-chloro-5-(3-hydroxy-3-methylpiperidin-1-yl)imidazo[1,5-a]pyridin-6-yl]ethyl}pyrazolo[1,5-a]pyrimidine-3-carboxamide trifluoroacetate] |  | > 6.30 | > 7.00 | > 6.30 |  |
| CC(NC(=O)c1c(N)nn2cccnc12)c1cc(Cl)c2cncn2c1N1CCCC(C)(C#N)C1 (single isomer, unassigned) [Example 77B, 2-Amino-N-{1-[8-chloro-5-(3-cyano-3-methylpiperidin-1-yl)imidazo[1,5-a]pyridin-6-yl]ethyl}pyrazolo[1,5-a]pyrimidinc-3-carboxamide trifluroacetate] |  | > 7.00 | > 7.00 | > 6.30 |  |
| CNC(=O)C1CCN(c2c(C(C)NC(=O)c3c(N)nn4cccnc34)cc(Cl)c3cn[nH]c23)C1 (single isomer, unassigned) [Example 103A, 2-Amino-N-[1-(4-chloro-7-{3-[(methylamino)carbonyl]pyrrolidin-1-yl}-2H-indazol-6-yl)ethyl]pyrazolo[1,5-a]pyrimidine-3-carboxamide trifluoroacetate] | > 6.00 | > 6.30 | > 7.00 |  |  |
| C[C@H](NC(=O)c1c(N)nn2cccnc12)c1cc(Cl)c2cncn2c1N1CCS(=O)(=O)[C@H](C)C1 [Example 31A, 2-Amino-N-((1S)-1-(8-chloro-5-(2-methyl-1,1-dioxidothiomorpholino)imidazo[1,5-a]pyridin-6-yl)ethyl)pyrazolo[1,5-a]pyrimidine-3-carboxamide trifluoroacetate salt] | > 6.30 | > 7.00 | > 7.00 |  |  |
